What was measured:
hairless mouse (HR-1) = experiment: Parakeratosis-inhibiting effect test (oleic acid applied to back of hairless mouse; visual rough skin evaluation and parakeratosis value); assay type: in vivo; conditions: for parakeratosis-inhibiting effect: in words, summary of Table 1; for Visual evaluation (average of four animals): rough skin score, control = 2.0, no skin roughness = 0.0, 3 days application after 10 mass % oleic acid; for Parakeratosis value (average of four animals): scale 1.0 to 3.0, higher = parakeratosis advanced, control 2.0
Method: Aqueous solutions (containing 30 mass % of ethanol) of 3 mass % of a β-alanine derivative or salt thereof were prepared mainly as the evaluation sample. The pH was regulated by hydrochloric acid or sodium hydroxide so as to be 7.0 to 7.5. When sample solubility was low, the solution was prepared accordingly.
100 μL of 10 mass % oleic acid solution (solvent: ethanol) were applied to the back of a hairless mouse (HR-1; Hoshino Laboratory Animals). Then the sample solution (β-alanine derivative, and the like) was applied 100 μL at a time. This procedure was continued for three days. […] At the same time, the stratum corneum at the back of the hairless mouse was peeled off with tape, the nuclei were stained by hematoxylin, and the degree of parakeratosis was observed and evaluated by a parakeratosis value within a range of 1.0 to 3.0 (in 0.25 increments).

[1] = test system: cheeks of healthy human males; experiment: Human pore-shrinking effect (replica of cheek pores, three-dimensional laser scanning microscope); assay type: in vivo; conditions: for pore-shrinking effect: in words, summary of Table 2; for Replica assessment value (average of n = 5): twice a day for one month, pore size rating (1-13) after minus before application, control 0.3
Method: An experiment was conducted whereby a sample was applied twice a day for one month to the cheeks of healthy human males in groups of 5 men each. Aqueous solutions (containing 15 mass % of ethanol) of 3 mass % of the β-alanine derivative or a salt thereof were prepared mainly as the evaluation sample. The pH was regulated by hydrochloric acid or sodium hydroxide so as to be 7.0 to 7.5. When the sample solubility was low, the solution was prepared accordingly. The control was an aqueous 15% ethanol solution. The sample aqueous solution and the control aqueous solution were applied to one half of the face at a time.
A replica was collected before and after continuous application, and changes in the shape of the pores at the same site were observed using a three-dimensional laser scanning microscope. The size of the pores was visually evaluated in the 13 steps of 1 through 13 (with the pores becoming larger as the numbers became larger), the difference in the ratings before and after application (after application—before application) was calculated, and the efficacy of each sample was studied using this difference as the replica assessment value.

hairless mice (HR-1) = experiment: Inhibiting effect on rough skin induced by oleic acid application (transepidermal water loss); assay type: in vivo, mouse; set-up: ΔTEWL value: unit not given here; conditions: for rough skin preventing/ameliorating effect (ΔTEWL value versus control aqueous solution): in words, summary of Table 3; for ΔTEWL value: average of four mice, 3 days after 10 mass % oleic acid, control 12.0, increase = rough skin worse
Method: In order to investigate the inhibiting effect of β-alanine derivatives and salts thereof on rough skin induced by oleic acid application, the transepidermal water loss (TEWL value) before and after application was measured, the difference was compared with the control (control aqueous solution), and the effect was determined. […] The TEWL was determined using the TM210 TEWA Meter (Courage+Khazaka Electronic GmBH).
100 μL of 10 mass % oleic acid (solvent: ethanol) was applied to the back of hairless mice (HR-1, four mice per group). Then a sample solution (β-alanine derivatives) was applied 100 μL at a time. This procedure was continued for three days. On the following day, the TEWL value of the back was determined and the values of the four animals were averaged.

panel of 20 women = experiment: Sensory irritation tests; assay type: in vivo, human; conditions: for sensory irritation: in words, summary of Table 4; for Evaluation (sensory irritation, class of average rating): 1 mL to cheek, rated for ten minutes
Method: 1 mL of a control aqueous solution and the sample aqueous solution prepared in Example 1 were applied using a cotton swab to the left or right cheek, respectively, of each member of a panel of 20 women, and the irritating sensation was evaluated every 30 seconds for ten minutes beginning immediately after application, whereby a final evaluation was reported. The evaluation of the irritating sensation was made based on the following four levels of rating criteria, and the average rating was calculated, whereby the average was classified by the following criteria.
3: Continuation is not possible because of extremely strong irritation, such as tingling sensation, burning sensation, stinging sensation, itching, and the like.
2: Intolerable because of strong irritation, such as tingling sensation, burning sensation, stinging sensation, itching, and the like.
1: Tolerable, but with slight irritation such as tingling sensation, burning sensation, stinging sensation, itching, and the like.
0: Not particularly irritating.
(Evaluation Criteria) • A: average rating of less than 0.2 • B: average rating of from 0.2 to less than 1.0 • C: average rating of from 1.0 to less than 2.0 • D: average rating of 2.0 or greater

| SMILES | parakeratosis-inhibiting effect (hairless mouse (HR-1)) | Visual evaluation (average of four animals) (hairless mouse (HR-1); sample 3 mass %) | Parakeratosis value (average of four animals) (hairless mouse (HR-1); sample 3 mass %) | pore-shrinking effect [1] | Replica assessment value (average of n = 5) ([1]; sample 3 mass %) | rough skin preventing/ameliorating effect (ΔTEWL value versus control aqueous solution) (hairless mice (HR-1)) | ΔTEWL value (hairless mice (HR-1); sample 3 mass %) | sensory irritation (panel of 20 women) | Evaluation (sensory irritation, class of average rating) (panel of 20 women; sample 3 mass %) | Visual evaluation (average of four animals) (hairless mouse (HR-1); sample 1 mass %) | Parakeratosis value (average of four animals) (hairless mouse (HR-1); sample 1 mass %) | Replica assessment value (average of n = 5) ([1]; sample 1.0 mass %) | ΔTEWL value (hairless mice (HR-1); sample 1 mass %) | Evaluation (sensory irritation, class of average rating) (panel of 20 women; sample 1 mass %) |
| --- | --- | --- | --- | --- | --- | --- | --- | --- | --- | --- | --- | --- | --- | --- |
| O=C(O)CCNC1CCCCC1 [N-cyclohexyl-β-alanine] | reduced the parakeratosis value | 1.1 | 1.1 | effect was seen | −0.9 | effect was seen | 9.0 | no problem of sensory irritation | – | – | – | – | – | – |
| O=C(O)CCNC(=O)C1CCCCC1 [N-cyclohexylcarbonyl-β-alanine] | reduced the parakeratosis value | 1.1 | 1.2 | effect was seen | −0.6 | effect was seen | 8.0 | no problem of sensory irritation | A (average rating of less than 0.2) | – | – | – | – | – |
| O=C(O)CCNCC1CCCCC1 [N-cyclohexylmethyl-β-alanine] | reduced the parakeratosis value | 1.1 | 1.1 | effect was seen | −0.8 | effect was seen | 8.9 | no problem of sensory irritation | A (average rating of less than 0.2) | – | – | – | – | – |
| CNCCC(=O)O [N-methyl-β-alanine] | reduced the parakeratosis value | 1.1 | 1.2 | effect was seen | −1.0 | effect was seen | 6.8 | no problem of sensory irritation | A (average rating of less than 0.2) | – | – | – | – | – |
| O=C(O)CCNC(=O)c1cccnc1 [N-nicotinoyl-β-alanine] | reduced the parakeratosis value | – | – | effect was seen | – | effect was seen | – | no problem of sensory irritation | – | 1.1 | 1.2 | −0.8 | 6.0 | A (average rating of less than 0.2) |
| Cl.NCCC(N)=O [β-alanine amide hydrochloride salt] | reduced the parakeratosis value | 1.3 | 1.3 | effect was seen | −0.3 | effect was seen | 8.9 | no problem of sensory irritation | A (average rating of less than 0.2) | – | – | – | – | – |
